Measurements taken from US20220265770A1, “TREATING NEURODEGENERATIVE DISEASES WITH PROGRANULIN” (NEURODYN, INC., priority 2008, published 2022).
“Also recorded” adds a separate entry of the source.

Assays:
[1] = test system: caudal primary motor neurons of zebrafish embryos; assay: Zebrafish ventral primary motor axon/nerve growth (znp1 immunostaining); format: in vivo
Description: During the first day of zebrafish development, neuromuscular connections are restricted to the three primary motoneurons (CaP, MiP and RoP) per spinal cord hemisegment where they innervate three myotome areas that ultimately develop into body wall muscle. During the first the 24 hpf CaP axons project to establish the common pathway. This is the developmental period encompassed in FIGS. 27 and 28.
Development of ventral primary neurons were examined in whole mount embryos at 26-28 hpf and visualized by immunostaining with znp1 monoclonal antibody that labels primary motor neurons.
There is reduced incidence (P<0.001) of truncated neurons (FIG. 27, Panel D, white arrows) together with increased incidence (P<0.001) of early and late branching (FIG. 27, Panel E, white arrowheads) as shown in Table 2. Data sets were accumulated from 50 embryos (WT, progranulin MO, progranulin MO plus mRNA).
Fish husbandry: Wild type zebrafish were purchased from Aquatica Tropicals (Florida) and maintained on a 14 h/10 h light/dark cycle at 28.5° C. in a laboratory aquarium (Allentown Caging Equipment Co. Inc., Allentown, N.J.). Fish were fed twice daily. In the late afternoon of the day before eggs are required, fish were transferred to a net positioned towards the top of a holding tank and covered. In the morning, after the light cycle begins and spawning has stopped, the eggs that have fallen through the net were collected from the bottom of the tank. Embryos to be used for developmental studies were collected and staged by hours post fertilization (hpf). […]
Microinjection of Pgrn mRNA: For Pgrn mRNA over-expression and rescue experiments the vector was generated as follows: The full-length progranulin-a sequence was purchased from RZPD (Berlin, Germany) as clone UCDMp574E2318Q2 and subcloned into pcDNA3.1-V5/His vector (Invitrogen, Carlsbad, Calif.) using a forward primer that overlapped with the starter AUG a reverse primer that read through the termination codon. […]

[2] = test system: male CD-1 mice; assay: Leg extension reflex following synthetic BSSG exposure; format: in vivo, mouse; conditions: 100 mg/day synthetic BSSG for 15 weeks, then normal chow; weekly, week 0-32, vs control p<0.0001
Method: Three month old male CD-1 mice were fed 100 mg/day of synthetic BSSG for 15 weeks, then permitted to age with a diet of normal lab chow. Leg extension was measured weekly from the initiation of the experiment. Testing was performed as described in Wilson et al., 2004 and Wilson et al., 2005.
The leg extension reflex test was used as a measure of motor neuron dysfunction (Barneoud and Curet, 1999). This test was altered to discriminate more subtle behaviors, creating a scale from 0 to 4. […] This scale allows the measure of progression in a continuous manner over time. A score of 0-4 is assigned based on the response shown by the mouse as follows:
4: Complete extension of both legs (normal).
3: Two legs extended with some tremors and/or punching in a leg.
2: One leg extended, 1 retracted, or tremors in both legs.
1: One leg retracted, tremors in other leg.

[3] = test system: male CD-1 mice; assay: Open field motor activity (grid crossings) following synthetic BSSG exposure; format: in vivo, mouse; conditions: same mice as Example 4; week 28 vs controls, p<0.05
Method: The same mice exposed to BSSG in Example 4 were used to analyze open field motor activity. *=p<0.05 (Student T-test).
For the open field motor activity analysis, mice were placed in a round open field (2 m diameter) for 5 minutes and movements were recorded using a video camera to measure emotionality and exploration (spontaneous motor activity) (Karl et al., 2003). Videos were replayed on a TV and a circular grid was overlaid on the TV screen. Grid crossings were recorded.

[4] = test system: motor neurons in lumbar cord; assay: Motor neuron quantification (Nissl, ChAT, CTIP2, caspase-3) after 10 weeks BSSG; format: in vivo, mouse; conditions: varying doses of synthetic BSSG for 10 weeks, aged 1 or 5 months on normal chow
Description: Six month old male CD-1 mice were fed varying doses of synthetic BSSG for 10 weeks, then allowed to age for 1 month with a diet of normal chow prior to sacrifice (see FIG. 3, panels A-C). Motor neurons were quantified in lumbar cord, by Nissl staining and choline acetyltransferase (ChAT) immunohistochemistry (IHC), as shown in FIG. 3A. Motor neurons were quantified in motor cortex where neurons were detected by IHC against CTIP2 (highly expressed in corticospinal motor neurons), as shown in FIG. 3C. Motor neurons in the lumbar spinal cord of animals permitted to age for 5 months following the cessation of BSSG were quantified after Nissl staining, as shown in FIG. 3D (* P<0.01, ANOVA).
Lumbar spinal cord sections were stained with cresyl violet and ventral horn motor neurons were counted under a 40× objective lens. All motor neurons in the field of view were included in the results. Multiple sections (N=6) from each mouse were used. Counts were conducted on spinal cord sections that were at least 150 μm apart (in the rostral-caudal plane) ensuring that no motor neuron was counted twice. In addition, counts included all apparent motor neurons including motor neurons that may have appeared atrophic or damaged.
Active caspase-3 (Promega, Madison, Wis.) labeling was performed as follows. […] Sections were visualized using fluorescence microscopy. […]

[5] = test system: progranulin expression; assay: In situ hybridization of progranulin expression in cervical spinal cord of BSSG fed mice; format: in vivo, mouse
Method: Adult male CD-1 mice were fed a diet of either normal chow or chow containing […] per day of synthetic BSSG. Following 10 weeks of feeding with BSSG-containing chow and a further month with normal lab chow, mice were killed and ISH using progranulin specific antisense riboprobes was performed on frozen sections of cervical spinal cord cut in trans-section. High levels of progranulin expression were detected in the anterior horn cells of the control mouse as shown by the section in FIG. 9A. […] A negative control section is shown in FIG. 9C, incubated with a sense probe.
Adult male CD-1 mice were fed a diet of chow containing 10, 100, or 1000 μg per day of synthetic BSSG. Following 10 weeks of feeding with BSSG-containing chow and a further month with normal lab chow, mice were killed and ISH using progranulin specific riboprobes was performed on frozen sections of cervical spinal cord cut in trans-section. […] Additionally, there is a more pronounced loss of progranulin expression per cell as BSSG exposure increases.

[6] = test system: spinal motor neurons; assay: Spinal motor neuron counts and ChAT in BSSG challenged mice treated with PGRN lentivirus; format: in vivo, mouse
[7] = test system: NSC-34 cells; conditions: literature (Tabata et al.); cited from earlier work
[8] = test system: NSC-34 cells; assay: NSC-34 proliferation/survival with granulin epithelin modules (CyQUANT NF); format: cell-based; conditions: 50 or 100 ng/ml, 13 days, RPMI without serum
Method: NSC 34 cells (5000 cell/well) were plated in 96 well plates using 100 ul of DMEM/10% FBS. The following day, the medium was removed and replaced with 100 ul of RPMI (without serum) containing: 0, 50 or 100 ng/ml of grn D or grn F. Cultures were incubated for 13 days following which cell proliferation/survival was determined using the CyQUANT® NF (kit #C35006) assay.
The CyQUANT® NF assay is based on measurement of cellular DNA content via fluorescent dye binding. The extent of proliferation/survival is determined by comparing fluorescence intensity for NSC-34 cells treated with GEMs (50 and 100 ng) relative to untreated controls (Ong).
As per the manufacturers instructions, the protocol included aspiration of growth medium, replacement with 100 ul of dye binding solution per well, incubation for 30 minutes following which the fluorescence intensity of each sample was measured using a fluorescence microplate reader with excitation at ˜485 nm and emission detection at ˜530 nm (FIG. 22). The immortalized motor neuron cell line (NSC-34) responded to incubation with grn F and grn D with either proliferation/survival (grn F) or no effect (grn D) similar to the response of extra neuronal cells incubated in the presence of these GEM's (described in: Tolkatchev D. et al., Protein Sci. 17:711-724, 2008).

[9] = Table 2, average number of motor axon/nerve defects per affected side, n=50, 10 ng PgrnA MO, 100 pg mRNA, 26-28 hpf

For “PGRN-MO2: morpholino to 5′UTR of zebrafish pgrn-a, 5′-GAGCAGGTGGATTTGTGAACAGCGG-3′ (all phosphorodiamidate morpholino (PMO))”, the Branching [1, 9] was 1.0 ± 0.19*c, the Truncation [1, 9] was 3.02 ± 0.31***a and the “primary motor neuron phenotype” value ([1]; whole mount embryos 26-28 hpf, znp1) was “range of morphant phenotypes”.

In the case of CC[C@H](CC[C@@H](C)[C@H]1CC[C@H]2[C@@H]3CC=C4C[C@@H](O[C@@H]5O[C@H](CO)[C@@H](O)[C@H](O)[C@H]5O)CC[C@]4(C)[C@H]3CC[C@]12C)C(C)C [BSSG, β-sitosterol β-D-glucoside], the “leg extension reflex (score 0-4)” value [2] is reported as “decline in leg extension reflex”, the “open field motor activity (grid crossing)” value [3] is reported as “significantly decreased movement” and the “motor neurons in lumbar spinal cord” value [4] is reported as “Progressive loss of motor neurons; also recorded: dose dependent loss of motor neuron health”. The “neuropathology and loss of progranulin expressing cells in cervical spinal cord” value ([5]; 10, 100 or 1000 μg per day BSSG, 10 weeks plus 1 month normal chow) was “more pronounced neuropathology”, the “progranulin expression in anterior horn cells of cervical spinal cord (ISH)” value ([5]; 1000 μs per day synthetic BSSG 10 weeks plus 1 month normal chow) was “decreased in intensity and was observed in fewer cells of the anterior horn” and the “numbers of ChAT positive motor neurons” value ([6]; control (saline treated) BSSG exposed mice) was “appeared to be reduced”. For the same molecule, the “choline acetyl transferase (ChAT) activity in anterior horn cells” value ([6]; saline treated BSSG exposed mice relative to all other treatment groups) was “decreased activity” and the “cytotoxicity in NSC-34 cell line” value [7] was “cause cytotoxicity”.

B1: grn D: granulin epithelin module, SEQ ID NO: 10, His-tagged (protein)
chain: AMDIGCDQHTSCPVGQTCCPSLGGSWACCQLPHAVCCEDRQHCCPAGYTCNVKARSCEKLAAALEHHHHHH
modifications: His tag
In the case of B1, the “cell proliferation/survival (CyQUANT NF fluorescence)” value [8] is reported as “no effect”.
